Measured values reported in the supplement of paper PMC8671470.

Test system: MOLM-13
Assay: cell viability (% survival relative to DMSO control, bortezomib = 0%); higher = less cytotoxic
Conditions: 1 nM; 72 h
Method in brief: (§1)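 Fifteen myeloid leukaemia cell lines were exposed to compounds at 1, 10, 100, 1000 or 10000 nM in 384-well plates for 72 h at 37 °C and 5% CO2. Viability was read by CellTiter-Glo luminescence and normalised, with vehicle as 100% and a 10 µM positive control as 0%. Values are percent survival averaged over duplicates.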

| Compound | cell viability |
| --- | --- |
| O=C(Cc1cccc(OC(F)(F)F)c1)Nc1ccc(CCCCc2nnc(NC(=O)Cc3ccccn3)s2)nn1 [CB-839] | 123% |
| O=NN(CCCl)C(=O)NCCCl [Carmustine] | 97.6% |
| O[C@H]1[C@H](O)[C@@H](O)CN2CC[C@H](O)[C@H]12 [Castanospermine] | 79.9% |
| O=C(/C=C/c1cccnc1)NCCCCC1CCN(C(=O)c2ccccc2)CC1 [Daporinad] | 69.1% |
| N=C(N)c1ccc(N=NNc2ccc(C(=N)N)cc2)cc1 [Diminazene] | 94.4% |
| OCCN(CCO)c1nc(N2CCCCC2)c2nc(N(CCO)CCO)nc(N3CCCCC3)c2n1 [Dipyridamole] | 116% |
| Cc1cc(O)c2c(c1)C(=O)c1cc(O)cc(O)c1C2=O [Emodin] | 67% |
| N#Cc1ccc(C2CCCc3cncn32)cc1 (centres undefined) [Fadrozole] | 108% |
| Cc1nc(-c2ccc(OCC(C)C)c(C#N)c2)sc1C(=O)O [Febuxostat] | 90.6% |

Same assay, conditions: 10 nM; 72 h

| Compound | cell viability |
| --- | --- |
| CN(C)CCNC(=O)c1cccn2c(=O)c3cc4ccccc4cc3nc12 [Bmh-21] | 92.6% |
| C=C1C(=O)O[C@H](CCCCCCCC)[C@H]1C(=O)O [C75] | 95.2% |
| O=C(Cc1cccc(OC(F)(F)F)c1)Nc1ccc(CCCCc2nnc(NC(=O)Cc3ccccn3)s2)nn1 [CB-839] | 102% |
| O=NN(CCCl)C(=O)NCCCl [Carmustine] | 106% |
| O[C@H]1[C@H](O)[C@@H](O)CN2CC[C@H](O)[C@H]12 [Castanospermine] | 90.7% |
| O=C(/C=C/c1cccnc1)NCCCCC1CCN(C(=O)c2ccccc2)CC1 [Daporinad] | 15.7% |
| N=C(N)c1ccc(N=NNc2ccc(C(=N)N)cc2)cc1 [Diminazene] | 98.1% |
| OCCN(CCO)c1nc(N2CCCCC2)c2nc(N(CCO)CCO)nc(N3CCCCC3)c2n1 [Dipyridamole] | 117% |
| Cc1cc(O)c2c(c1)C(=O)c1cc(O)cc(O)c1C2=O [Emodin] | 101% |
| N#Cc1ccc(C2CCCc3cncn32)cc1 (centres undefined) [Fadrozole] | 86.8% |
| Cc1nc(-c2ccc(OCC(C)C)c(C#N)c2)sc1C(=O)O [Febuxostat] | 102% |

Same assay, conditions: 100 nM; 72 h

| Compound | cell viability |
| --- | --- |
| CN(C)CCNC(=O)c1cccn2c(=O)c3cc4ccccc4cc3nc12 [Bmh-21] | 102% |
| C=C1C(=O)O[C@H](CCCCCCCC)[C@H]1C(=O)O [C75] | 106% |
| O=C(Cc1cccc(OC(F)(F)F)c1)Nc1ccc(CCCCc2nnc(NC(=O)Cc3ccccn3)s2)nn1 [CB-839] | 116% |
| O=NN(CCCl)C(=O)NCCCl [Carmustine] | 98.2% |
| O[C@H]1[C@H](O)[C@@H](O)CN2CC[C@H](O)[C@H]12 [Castanospermine] | 108% |
| O=C(/C=C/c1cccnc1)NCCCCC1CCN(C(=O)c2ccccc2)CC1 [Daporinad] | 0.0519% |
| N=C(N)c1ccc(N=NNc2ccc(C(=N)N)cc2)cc1 [Diminazene] | 101% |
| OCCN(CCO)c1nc(N2CCCCC2)c2nc(N(CCO)CCO)nc(N3CCCCC3)c2n1 [Dipyridamole] | 97.5% |
| Cc1cc(O)c2c(c1)C(=O)c1cc(O)cc(O)c1C2=O [Emodin] | 112% |
| N#Cc1ccc(C2CCCc3cncn32)cc1 (centres undefined) [Fadrozole] | 92.7% |
| Cc1nc(-c2ccc(OCC(C)C)c(C#N)c2)sc1C(=O)O [Febuxostat] | 141% |

Same assay, conditions: 1000 nM; 72 h

| Compound | cell viability |
| --- | --- |
| CN(C)CCNC(=O)c1cccn2c(=O)c3cc4ccccc4cc3nc12 [Bmh-21] | 87.6% |
| C=C1C(=O)O[C@H](CCCCCCCC)[C@H]1C(=O)O [C75] | 99.3% |
| O=C(Cc1cccc(OC(F)(F)F)c1)Nc1ccc(CCCCc2nnc(NC(=O)Cc3ccccn3)s2)nn1 [CB-839] | 59.8% |
| O=NN(CCCl)C(=O)NCCCl [Carmustine] | 106% |
| O[C@H]1[C@H](O)[C@@H](O)CN2CC[C@H](O)[C@H]12 [Castanospermine] | 123% |
| O=C(/C=C/c1cccnc1)NCCCCC1CCN(C(=O)c2ccccc2)CC1 [Daporinad] | 0.204% |
| N=C(N)c1ccc(N=NNc2ccc(C(=N)N)cc2)cc1 [Diminazene] | 73.7% |
| OCCN(CCO)c1nc(N2CCCCC2)c2nc(N(CCO)CCO)nc(N3CCCCC3)c2n1 [Dipyridamole] | 83.5% |
| Cc1cc(O)c2c(c1)C(=O)c1cc(O)cc(O)c1C2=O [Emodin] | 95.2% |
| N#Cc1ccc(C2CCCc3cncn32)cc1 (centres undefined) [Fadrozole] | 94.4% |
| Cc1nc(-c2ccc(OCC(C)C)c(C#N)c2)sc1C(=O)O [Febuxostat] | 103% |

Same assay, conditions: 10000 nM; 72 h

| Compound | cell viability |
| --- | --- |
| CN(C)CCNC(=O)c1cccn2c(=O)c3cc4ccccc4cc3nc12 [Bmh-21] | 22.1% |
| C=C1C(=O)O[C@H](CCCCCCCC)[C@H]1C(=O)O [C75] | 137% |
| O=C(Cc1cccc(OC(F)(F)F)c1)Nc1ccc(CCCCc2nnc(NC(=O)Cc3ccccn3)s2)nn1 [CB-839] | 73.7% |
| O=NN(CCCl)C(=O)NCCCl [Carmustine] | 101% |
| O[C@H]1[C@H](O)[C@@H](O)CN2CC[C@H](O)[C@H]12 [Castanospermine] | 117% |
| O=C(/C=C/c1cccnc1)NCCCCC1CCN(C(=O)c2ccccc2)CC1 [Daporinad] | -0.318% |
| N=C(N)c1ccc(N=NNc2ccc(C(=N)N)cc2)cc1 [Diminazene] | 93.9% |
| OCCN(CCO)c1nc(N2CCCCC2)c2nc(N(CCO)CCO)nc(N3CCCCC3)c2n1 [Dipyridamole] | 97.8% |
| Cc1cc(O)c2c(c1)C(=O)c1cc(O)cc(O)c1C2=O [Emodin] | 71.4% |
| N#Cc1ccc(C2CCCc3cncn32)cc1 (centres undefined) [Fadrozole] | 93.2% |
| Cc1nc(-c2ccc(OCC(C)C)c(C#N)c2)sc1C(=O)O [Febuxostat] | 94.9% |

Test system: LAMA-84
Assay: as above
Conditions: 1 nM; 72 h
Method in brief: as §1

| Compound | cell viability |
| --- | --- |
| CN(C)CCNC(=O)c1cccn2c(=O)c3cc4ccccc4cc3nc12 [Bmh-21] | 103% |
| C=C1C(=O)O[C@H](CCCCCCCC)[C@H]1C(=O)O [C75] | 92.2% |
| O=C(Cc1cccc(OC(F)(F)F)c1)Nc1ccc(CCCCc2nnc(NC(=O)Cc3ccccn3)s2)nn1 [CB-839] | 116% |
| O=NN(CCCl)C(=O)NCCCl [Carmustine] | 98.7% |
| O[C@H]1[C@H](O)[C@@H](O)CN2CC[C@H](O)[C@H]12 [Castanospermine] | 93% |
| O=C(/C=C/c1cccnc1)NCCCCC1CCN(C(=O)c2ccccc2)CC1 [Daporinad] | 83.1% |
| N=C(N)c1ccc(N=NNc2ccc(C(=N)N)cc2)cc1 [Diminazene] | 105% |
| OCCN(CCO)c1nc(N2CCCCC2)c2nc(N(CCO)CCO)nc(N3CCCCC3)c2n1 [Dipyridamole] | 97.9% |
| Cc1cc(O)c2c(c1)C(=O)c1cc(O)cc(O)c1C2=O [Emodin] | 102% |
| N#Cc1ccc(C2CCCc3cncn32)cc1 (centres undefined) [Fadrozole] | 102% |
| Cc1nc(-c2ccc(OCC(C)C)c(C#N)c2)sc1C(=O)O [Febuxostat] | 102% |
